Like-named read-outs stand apart in the source and are kept apart here.
Legend:
[1] = cited from earlier work
[2] = tested on: CD4 and CD8 T cells from human peripheral blood; experiment: T cell activation in PBMC, flow cytometry with TriMAP/FlowSOM; format: cell-based; conditions: 10^-7 M, 24 h, anti-CD3 and anti-CD28, compared to ethanol treated cells
Experimental: Human peripheral blood mononuclear cells (PBMC) from two healthy individuals were obtained from a pre-existing respository. Their use was approved by the University of Alabama at Birmingham Institutional Review Board (Human Subject Assurance Number FWA00005960) as an exempt protocol #4 (Dr C. Raman, P.I.). […] Informed consent is waived in accord with 45CFR46.116 (d). In 48 well plates, 0.5×10^6 PBMC/well were cultured in RPMI1640 containing, 5% charcoal adsorbed FBS and antibiotics and T cells were activated using […] anti-CD3 (clone 145-2C11) and 1 μg/ml anti-CD28 (clone 37.51) for 24 h (Janjetovic Z, et. al., (2021) Endocrinology 162(1), Chaiprasongsuk A, et. al., (2020) Free Radic Biol Med 155 87-98, Slominski A T, et. al., (2011) Am J Physiol Cell Physiol 300(3) C526-41, McGuire D J, et. al., (2014) Eur J Immunol 44(4) 1137-42, Sestero C M, et. al., (2012) J Immunol 189(6) 2918-30). The culture was treated with 10^-7 M 20S(OH)D3, 20S,25(OH)2D3, 20S,23S(OH)2D3, 20S,23R(OH)2D3 or 1α,25(OH)2D3 (Sigma-Aldrich, St. Louis, MO, USA) dissolved in ethanol and diluted in culture medium at the same time of addition of anti-CD3 and anti-CD28. The vehicle control comprised of 0.1% ethanol. At the end of assay the cells were stained with antibodies to CD4 (clone RPA-T4, BV-421), CD19 (clone HB19, BV-510), CD14 (clone HCD14, Alexa 700), CD137 (clone 4B4-1, BV605), CD8a (clone RPA-T8, FITC), ICOS (clone C398.4A, PE/Dazzle), PD1 (clone NAT105, PE), CD80 (clone 2D10, PerCP/Cy5.5), OX40 (clone ACT35, PE/Cy7), CD69 (clone FN50, APC), HLA-DR (clone L243, APC/Fire 750). All antibodies were from Biolegend except anti-CD8 was from Thermo Fisher. The stained cells were analyzed using a CytoFLEX (Beckman Coulter) flow cytometer.
For unbiased analysis of the multidimensional data, acomputational algorithm-based approaches was utilized (Quintelier K, et. al., (2021) Nature Protocols 16(8) 3775-3801). The flow cytometry standard (FCS) data files from each individual and treatment (two individuals, six treatments including ethanol, a total of 12 data files) were processed through the following workflow—compensation, gating on live cells, gating for single cells and subtraction of CD19+(B cells) and CD14+(monocytes). B cells and monocytes were removed from the analysis because only T cells (CD4+ and CD8+) are activated by anti-CD3 and anti-CD28. After these initial gating steps, a key word was added to each of the 12 FCS files, down sampled to 50,000 events/sample and concatenated. Down sampling ascertains that each sample is equally weighted, and concatenation ascertains that statistical analysis is applied equally. The concatenated files were first subjected to TriMAP analysis, a computational algorithm that clusters populations based on triplet relatedness followed by FlowSOM algorithm-based clustering (Quintelier K, et. al., (2021) Nature Protocols 16(8) 3775-3801). To perform these analyses, plugins within FlowJo (BD, CA, USA) were used.
T cells in peripheral blood from two healthy individuals were activated with anti-CD3 and anti-CD28 in the absence (ethanol) or presence of 10^−7 M of each of the vitamin D3 secosteroids for 24 h. The cells were stained for lineage markers (CD4, CD8, CD19, CD14) and a panel of activation induced markers (CD69, ICOS, OX40, CD137, PD1, HLADR) and expression data were collected using a flow cytometer. The gating strategy was live, single cell followed by CD4 and CD8 T cell populations. […]

Row | Compound | calcemic activity / toxicity ([1]; literature, at the same doses) | CD4 T cells of population 4 (down modulated CD4, increased CD69 and ICOS) [2] | calcemic activity / toxicity ([1]; in vivo)
1 | 25(OH)D3 [reference compound] | highly toxic | – | –
2 | C=C1CC[C@H](O)C/C1=C/C=C1\CCC[C@@]2(C)[C@H]1CC[C@@H]2[C@@](C)(O)CC(O)CC(C)C (stereo partly shown) [20S,23(OH)2D3, 20,23-dihydroxyvitamin D3] | – | no effect on this population | –
3 | C=C1/C(=C\C=C2/CCC[C@]3(C)[C@@H]([C@H](C)CCCC(C)(C)O)CC[C@@H]23)C[C@@H](O)C[C@@H]1O [1α,25(OH)2D3, reference compound] | – | fewer cells | highly toxic
